Series [1] has as its system chloroform-induced arrhythmias. As to conditions: mouse, in vivo.
Series [2] deals with chloroform-induced arrhythmias. Kind of series: animal or person. As to conditions: Mus musculus.
The test system of series [3] is chloroform induced fibrillation. Briefly: Protection against chloroform induced fibrillation in mice, subcutaneous, potency relative to lidocaine (Table IV). Type of series: in vivo. As to conditions: s.c., 20 min, statistical mean (confidence limits). Here is the method: (§1) The experiments on mice were performed according to a modification of the method described by J. W. Lawson, "Antiarrhythmic activity of some isoquinoline derivatives determined by a rapid screening procedure in the mouse", J. Pharm. Exp. Therap. Vol. 160, pp. 22-31 (1968). This method is based upon the observation that when an unanesthetized, untreated mouse is exposed to chloroform vapor its respiration soon ceases and at that time both electrocardiographic and visual inspection reveal that the cardiac ventricles are fibrillating. If the mouse is treated appropriately with known antiarrhythmic agents prior to exposure to chloroform, the respiratory failure is not accompanied by ventricular fibrillation.
The procedure used was a modification of the method previously described. The modification involved using a standard time of 20 minutes for each test run and four different doses of the same drug. Route of administration was subcutaneous.

In series [4] the test system is ventricular arrhythmias. Type of series: in vivo, dogs. Here is the method:
Vol. 1, pp. 1318-1328 (1950). […] The electrocardiographic, cardiovascular and other drug effects were monitored.
Table II summarizes the results of oral administration:
Dogs #215 and #220 given 50 mg/kg dose at 0 mins and 100 mg/kg dose at 24
The electrocardiographic, cardiovascular and other drug effects were monitored.

Series [5] relates to ventricular arrhythmias. Kind of series: animal or person. Here is the method:
Tests on dogs with the compound 2-amino-2',6'-propionoxylidide were conducted according to a modification of the method described by A. S. Harris in "Delayed Development of Ventricular Ectopic Rhythms Following Experimental Coronary Occlusions", Circ. Vol. 1, pp. 1318-1328 (1950). In this method the dogs were anesthetized, the heart was exposed, and the anterior descending branch of the left coronary artery was ligated in two stages. The thorax was closed and the dog was allowed to recover from the anesthesia. […] B. B. Clark and J. R. Cummings, "Arrhythmias Following Experimental Coronary Occlusion and Their Response to Drugs", Annals New York Academy of Sciences, Vol. 65, pp. 543-551 (1956). […] The electrocardiographic, cardiovascular and other drug effects were monitored.
The dosage schedule was: 1st hr.: 15 mg/kg/hr; 2nd hr.: 30 mg/kg/hr; 3rd hr.: 60 mg/kg/hr. Infusions were stopped at the first sign of toxicity other than emesis.
The compound 3-amino-2',6'-butyroxylidide was also tested on dogs, according to a modification of the method of Harris as previously described. As in the previously described tests, unanesthetized dogs were supported in canvas slings and were treated either intravenously or orally with doses of 3-amino-2',6'-butyroxylidide. The electrocardiographic, cardiovascular and other drug effects were monitored.

In series [6] the test system is ventricular fibrillation. Kind of series: Protection against chloroform induced fibrillation in the guinea pig, intraperitoneal (Table V). Type of series: in vivo. Conditions: 326 mg/kg i.p., 20 min before chloroform. Here is the method:
Guinea pigs (250-350 g) were placed individually into a series of 4000 ml beakers containing cotton and 100 ml of chloroform. After cessation of respiration the animal was removed from the beaker, the thorax was opened and the heart was examined for the presence or absence of ventricular fibrillation. The nature of the cardiac rhythm was confirmed by electrocardiographic recordings.
A single dose (about 1-5 ml) of each test compound was administered intraperitoneally by a 25 gauge needle twenty minutes before the animals were placed in chloroform.

Another series is described as follows: pKa. Type of series: physicochemical. As to conditions: 23; read-out: pkaa^23.
For series [7], the system named is ventricular fibrillation. Kind of series: Protection against chloroform induced ventricular fibrillation in mice, oral (Table I). Type of series: in vivo, female Swiss albino mice (HAM/ICR). Here is the method: as §1
Series [8] deals with mice. Briefly: Ataxia just before CHCl3 challenge in mice, oral (Table I). Type of series: in vivo, female Swiss albino mice (HAM/ICR). Here is the method: as §1
For the next series, the system named is frog sciatic nerve. Kind of series: Local anesthetic effect in vitro on the frog sciatic nerve. Conditions: 5 min; 20 mM, after 5 minutes; read-out: block of the action potential of the nerve.
The conditions of series [9]: cited from earlier work.
The subject of series [10] is mice. Briefly: Acute oral toxicity in mice (24 Hr. mortality). Conditions: oral, mice, 24 hr; dose to kill one of a thousand.
The test system of series [11] is mice. Conditions: mouse, in vivo, po, 1440 min.
The next series deals with cardiac arrhythmias. Conditions: in vivo; cited from earlier work.
Series [12] can be described thus: Acute oral toxicity in mice (24 Hr. mortality). Conditions: mouse, in vivo, po.
Where [13] appears, read: dose LD0.1, drug given 10 min before CHCl3 challenge.
The mark [14] stands for this setting: dose LD0.1, drug given 20 min before CHCl3 challenge.
The mark [15] stands for this setting: dose LD0.1, drug given 40 min before CHCl3 challenge.
[16] abbreviates: dose LD0.1, drug given 80 min before CHCl3 challenge.

SMILES strings stand for the structures. Like-named read-outs stand apart in the source and are kept apart here.

By ED50 is commonly meant the dose at which the effect has come halfway, by size or by number of responders. Read a high ED50 as a need for a large dose. For `CCNC(C)C(=O)Nc1c(C)cc(C)cc1C` (centres unmarked), in series [1], the incidence of ataxia is on record as 100% and the incidence of convulsions is given as 90%. For the same molecule, the ED50 in series [2] turned out to be 162 mg/kg.

Take `Cc1cccc(C)c1NC(=O)[C@@H](C)N` [2-amino-2',6'-propionoxylidide]: the “Relative Potency (ED50 test compound/ED50 lidocaine)” value (“Relative Potency” below) in series [3] is on record as 0.45 (0.26 - 0.78).

With `CCc1cccc(CC)c1NC(=O)CN` [2-amino-2', 6'-diethylacetanilide, 2-amino-2',6'-diethylacetanilide], in series [3], the “Relative Potency” value is 0.22 (0.13 - 0.36).

For `CCc1cccc(CC)c1NC(=O)C(C)N` (centres unmarked) [2-amino-2', 6'-diethylpropionanilide, 2-amino-2',6'-diethylpropionanilide], the “Relative Potency” value in [3] is 0.48 (0.27 -0.73).

As for `CCc1cccc(C)c1NC(=O)CN` [2-amino-2'-ethyl-6'-methyl acetanilide, 2-amino-2'-ethyl-6'-methylacetanilide], the “Relative Potency” value in series [3] is recorded as 0.27 (0.14 - 0.40).

Turning to `Cc1cccc(C)c1NC(=O)CC(C)N` (centres unmarked) [3-amino-2',6'-butyroxylidide], the adverse reactions result in the series on ventricular arrhythmias [4] (dog, in vivo, po) is on record as “unaccompanied by any discernible adverse reactions”; in the series on ventricular arrhythmias [5] (dog, in vivo, iv), “unaccompanied by any discernible adverse reactions”. Further, the “suppression of the ventricular arrhythmias” value in the series with ventricular arrhythmias [4] (oral doses, dogs) was “distinct suppression of the ventricular arrhythmias”; in the series with ventricular arrhythmias [5] (intravenous doses, dogs), “distinct suppression of the ventricular arrhythmias”. Besides, in the series on ventricular arrhythmias [5] (intravenous, antiarrhythmic doses, dogs (Table VI)), the toxic side-effects result was “minimal toxic side-effects”. In addition, the “Toxicity: Convulsions” value in the series with ventricular arrhythmias [5] (intravenous, individual dogs) is reported as “None”. For the same molecule, the “Toxicity: Deaths” value with ventricular arrhythmias [5] (intravenous, individual dogs) is “None”. Further, the “Relative Potency” value in series [3] was 0.99 (0.60 - 1.9). The “Percent of Population Protected” value in the series with ventricular fibrillation [6] is recorded as 100%.

Turning to `Cc1cc(C)c(NC(=O)CCN)c(C)c1` [3-amino-2', 4', 6'-propionomesidide, 3-amino-2',4',6'-propionomesidide], the pKa in the series “pKa” is 8.7 to 8.8.

Turning to `Cc1cccc(C)c1NC(=O)CCN` [3-amino-2', 6'-propionoxylidide, 3-amino-2',6'-propionoxylidide], the “Relative Potency” value in series [3] is listed as 0.4 (0.2 - 0.8).

Take `CCc1cccc(C)c1NC(=O)CCN` [3-amino-2'-ethyl-6'-methylpropionanilide]: in [3], the “Relative Potency” value was 0.29 (0.09 - 0.81).

Regarding `Cc1cccc(C)c1NC(=O)[C@H](C)N` [(+)-2-amino-2',6'-propionoxylidide], the “Relative Potency” value in series [3] is reported as 0.11 (0.06 - 0.21).

As to `CCN(CC)CC(=O)Nc1c(C)cccc1C` [Lidocaine, 2-diethylamino-2',6'-acetoxylidide], the “Proportion of mice protected against fibrillation at LD0.1” value (shortened to “Proportion of mice protected”) in the series on ventricular fibrillation [7] (setting [13]) is reported as 9/10; in the series on ventricular fibrillation [7] (setting [14]), 10/10; in the series on ventricular fibrillation [7] (setting [15]), 7/10; with ventricular fibrillation [7] (setting [16]), 0/10. Besides, the “Proportion of mice having ataxia just before CHCl3 challenge” value in the series with mice [8] (dose LD0.1, 10 min) is 0/10; with mice [8] (dose LD0.1, 20 min) it was 9/10; in the series on mice [8] (dose LD0.1, 40 min), 0/10; with mice [8] (dose LD0.1, 80 min), 0/10. In the series on ventricular arrhythmias [5] (i.v. infusion 15, 30, 60 mg/kg/hr, dogs tested: lidocaine 2, test compound 1, abnormal beats less than 5% of total), the “Number of dogs showing antiarrhythmic effect” value is 2. In addition, in the series on frog sciatic nerve, the inhibition at 20000 µM is 78%. Moreover, the “duration of blood levels” value in series [9] (in vivo) is listed as “fairly short”. In series [9] (oral), the “levels of the drug in the blood” value is “low levels of the drug in the blood”. The oral effectiveness entry in series [9] (oral) is given as “not orally effective”. Further, the “loss of the drug after oral administration” value in series [9] (oral, probably due to functions of the liver) is given as “pronounced loss of the drug”. For the same molecule, in the series with mice [10], the “24 Hr. Mortality LD0.1” value is given as 154 mg/kg.

Usually LD50 stands for the dose at which mortality reaches 50%. Low values mean a more toxic substance, high ones a less toxic substance. For the molecule `CCN(CC)CCNC(=O)c1ccc(N)cc1` [Procainamide], the “Proportion of mice protected” value is reported as 0/10 in the series on ventricular fibrillation [7] (dose LD0.1, drug given 5 min before CHCl3 challenge); 1/10 in the series on ventricular fibrillation [7] (setting [13]); 0/10 in the series with ventricular fibrillation [7] (setting [14]). Also, the “Proportion of mice having ataxia just before CHCl3 challenge” value in the series with mice [8] (dose LD0.1, 5 min) was 0/10; in the series on mice [8] (dose LD0.1, 10 min) it was 0/10; in the series on mice [8] (dose LD0.1, 20 min), 0/10. Also, the “24 Hr. Mortality LD0.1” value in the series with mice [11] is reported as 248 mg/kg. In the series with cardiac arrhythmias, the side effects result was “exhibit undesirable side effects”. The same molecule came in with an LD50 at 24 h in series [12] of 643 mg/kg.

`C=C[C@H]1C[N@@]2CC[C@H]1C[C@@H]2[C@@H](O)c1ccnc2ccc(OC)cc12` [Quinidine]: the “Proportion of mice protected” value in the series on ventricular fibrillation [7] (setting [14]) is on record as 10/10; in the series on ventricular fibrillation [7] (setting [15]) it was 9/9; in the series on ventricular fibrillation [7] (setting [16]), 9/9. Further, the “Proportion of mice having ataxia just before CHCl3 challenge” value in the series with mice [8] (dose LD0.1, 20 min) is recorded as 0/10; in the series with mice [8] (dose LD0.1, 40 min), 2/10. Also, the death with mice [8] (dose LD0.1, 40 min group) amounted to 1 death; in the series with mice [8] (dose LD0.1, 80 min group) it was 1 death. For the same molecule, in the series with cardiac arrhythmias, the side effects entry was “exhibit undesirable side effects”. Besides, in series [12], the LD50 at 24 h stood at 382 mg/kg. Besides, the “24 Hr. Mortality LD0.1” value in the series with mice [10] amounted to 348 mg/kg.

Turning to `O=C1NC(=O)C(c2ccccc2)(c2ccccc2)N1` [diphenylhydantoin], the side effects result in the series on cardiac arrhythmias was “exhibit undesirable side effects”.

For `CC(C)NCC(O)COc1cccc2ccccc12` (centres unmarked) [propranolol], in the series with cardiac arrhythmias, the side effects result is reported as “exhibit undesirable side effects”.

The values are drawn from patent US4218477A, “Primary aminoacylanilides, methods of making the same and use as antiarrhythmic drugs” (priority 1976, dated 1980).
